Here are results for 18 compounds from patent publication USRE37781E1, “Substituted cyclic carbonyls and derivatives thereof useful as retroviral protease inhibitors” (DuPont Pharmaceuticals Company, priority 1991, dated 2002).

Converted amounts (≈) assume the structure as drawn. Read-outs that look alike come from different tables or passages of the source.

For this assay, the system named is HIV-1 (RF) in MT-2 cells. The experiment in a line: microbe, parasite or virus in culture. The class given is cell-based. The procedure: DNA Plasmids and in vitro RNA transcripts:
Plasmid pDAB 72 containing both gag and pol sequences of BH10 (bp 113-1816) cloned into PTZ 19R was prepared according to Erickson-Viitanen et al. AIDS Research and Human Retroviruses 1989, 5, 577. The plasmid was linearized with Bam HI prior to the generation of in vitro RNA transcripts using the Riboprobe Gemini system II kit (Promega) with T7 RNA polymerase. Synthesized RNA was purified by treatment with RNase free DNAse (Promega), phenol-chloroform extraction, and ethanol precipitation. RNA transcripts were dissolved in water, and stored at −70° C. The concentration of RNA was determined from the A260.
Biotinylated capture probes were purified by HPLC after synthesis on an Applied Biosystems (Foster City, Calif.) DNA synthesizer by addition of biotin to the 5′ terminal end of the oligonucleotide, using the biotin-phosphoramidite reagent of Cocuzza, Tet. Lett. 1989, 30, 6287. The gag biotinylated capture probe (5-biotin-[…] 3′) was complementary to nucleotides 889-912 of HXB2 and the pol biotinylated capture probe (5′-biotin-[…] 3′) was complementary to nucleotides 2374-2395 of HXB2. Alkaline phosphatase conjugated oligonucleotides used as reporter probes were prepared by Syngene (San Diego, Calif.). The pol reporter probe (5′ […] 3′) was complementary to nucleotides 2403-2425 of HXB2. The gag reporter probe (5′ […] 3′) was complementary to nucleotides 950-973 of HXB2. All nucleotide positions are those of the GenBank Genetic Sequence Data Bank as accessed through the Genetics Computer Group Sequence Analysis Software Package (Devereau Nucleic Acids Research 1984, 12, 387). The reporter probes were prepared as 0.5μM stocks in 2× SSC (0.3M NaCl, 0.03M sodium citrate), 0.05M Tris pH 8.8, 1 mg/mL BSA. The biotinylated capture probes were prepared as 10 μM stocks in water.
Streptavidin coated plates:
Nunc-immunomodule microtiter plate strips were coated by addition of 200 μL of streptavidin (30 ug/mL, Scripps, La Jolla, Calif.) in freshly prepared 10 mM sodium carbonate (pH 9.6). Plates were incubated overnight at 4° C. Streptavidin solution was aspirated from the wells and a blocking buffer composed of phosphate buffered saline (PBS), 20 mg/mL bovine serum albumin (crystalline, nuclease and protease free, Calbiochem) and 100 mg/mL lactose (Sigma) was added to the plates for 3 hrs at room temperature. Blocking buffer was removed from the wells, which were allowed to dry overnight at room temperature and subsequently stored at 4° C. in zip lock bags with desiccant. For the majority of the compound evaluation experiments, streptavidin coated plates were obtained from Du Pont Biotechnology Systems (Boston, Mass.).
MT-2, CEM, and H9 cells were maintained in RPMI 1640 supplemented with 5% fetal calf serum (FCS), 2 mM L-glutamine and 50 μg/mL gentamycin, all from Gibco. Laboratory strains of HIV-1 (RF, MN and IIIB) were propagated in H9 cells in the same medium. Virus stocks were prepared approximately 1 month after acute infection of H9 cells by clarification of the tissue culture medium and storage of aliquots at −70° C. […] Each aliquot of virus stock used for infection was thawed only once. In some cases, infected H9 cells were shifted to Dulbecco's modified Eagle's medium 3-10 days before collection of virus in order to generate virus stocks in medium with low biotin content. Clinical isolates of HIV that had been passaged once in MT-2 cells were used to infect fresh MT-2 cells in RPMI medium. Three days after infection, cells were pelleted, resuspended and culture continued in Dulbecco's modified Eagle's medium as above. Virus stocks of clinical isolates were prepaid 10-15 days after infection when cytopathic effects were apparent in the culture.

The mark [1] stands for this setting: Human immunodeficiency virus 1, MT2, HIV RNA assay, HIV-1 infected MT-2 cells, class symbols, read-out: IC90.
Where [2] appears, read: Human immunodeficiency virus 1, MT2, 24 h, Table 1d, upper part, read-out: IC90.
The mark [3] stands for this setting: Human immunodeficiency virus 1, MT2, Table 1e, read-out: IC90.

For `O=C1N(Cc2cccc(I)c2)C(Cc2ccccc2)C(O)C(O)C(Cc2ccccc2)N1Cc1ccc2[nH]nnc2c1` (stereo not drawn) [15DT], the IC90 entry (Table 2d, HIV RNA assay) was “+++ (+++=<10 μg/mL)”.

Turning to `CN(C)CCNC(=O)c1cccc(CN2C(=O)N(Cc3cccc(C(=O)NCCN(C)C)c3)C(Cc3ccccc3)C(O)C(O)C2Cc2ccccc2)c1` (stereo not drawn) [15XW], the IC90 result (Table 2d, HIV RNA assay) is “++ (++=10 to 100 μg/mL)”.

As to `O=C1N(Cc2ccc3ccccc3n2)C(Cc2ccccc2)C(O)C(O)C(Cc2ccccc2)N1Cc1ccc2ccccc2n1` (stereo not drawn) [Example 6K], the IC90 under setting [1] is above 100 µg/mL.

For the compound `O=C1N(Cc2ccc(C(F)(F)F)cc2)C(Cc2ccccc2)C(O)C(O)C(Cc2ccccc2)N1Cc1ccc(C(F)(F)F)cc1` (stereo not drawn) [Example 6W], the IC90 under setting [1] was above 100 µg/mL.

On to `O=C1N(Cc2cccc(C(F)(F)F)c2)C(Cc2ccccc2)C(O)C(O)C(Cc2ccccc2)N1Cc1cccc(C(F)(F)F)c1` (stereo not drawn) [Example 6Y], for which the IC90 under setting [1] was above 100 µg/mL.

As to `C=CCN1C(=O)N(CC=C)C(Cc2ccccc2)C2OCSCOC2C1Cc1ccccc1` (stereo not drawn) [Example 7B], the IC90 under setting [2] lay in the range of 10 to 100 µg/mL (≈ 21.5 to 215 µM).

As to `O=C1N(CC2CC2)C(Cc2ccccc2)C2OCOC2C(Cc2ccccc2)N1CC1CC1` (stereo not drawn) [Example 7H], under setting [2], the IC90 lay in the range of 10 to 100 µg/mL (≈ 22.4 to 224 µM).

With `O=C1N(Cc2ccc3ccccc3c2)C(Cc2ccccc2)C2OCOC2C(Cc2ccccc2)N1Cc1ccc2ccccc2c1` (stereo not drawn) [Example 7Q], the IC90 under setting [2] was in the range of 10 to 100 µg/mL (≈ 16.2 to 162 µM).

Regarding `O=C1N(Cc2ccc3ccccc3c2)C(C(F)Cc2ccccc2)[C@@H](O)[C@@H](Cc2ccccc2)N1Cc1ccc2ccccc2c1` (stereo partly drawn) [Example 7X], the IC90 under setting [3] was above 100 µg/mL.

With `NC(=NO)c1cccc(CN2C(=O)N(Cc3cccc(C(N)=NO)c3)C(Cc3ccccc3)C(O)C2CCc2ccccc2)c1` (stereo not drawn) [Example 8AF], under “Table 1e”, the IC90 entry is on record as “+++ (+++=<10 μg/mL)”.

As for `NC(=NO)c1cccc(CN2C(=O)N(Cc3cccc(C(N)=NO)c3)C(Cc3ccccc3)C(O)C2CCc2ccccc2)c1` (stereo not drawn) [Example 8AO], for the setting “Table 1e”, the IC90 entry is on record as “+ (+=>100 μg/mL)”.

On to `COC(=O)c1cccc(CN2C(=O)N(Cc3cccc(C(=O)OC)c3)C(Cc3ccccc3)C(O)C2CCc2ccccc2)c1` (stereo not drawn) [Example 8AQ], for which the IC90 under setting [3] was above 100 µg/mL.

For the compound `O=C1N(Cc2ccc3ccccc3c2)C(CCc2ccccc2)[C@@H](O)[C@@H](Cc2ccccc2)N1Cc1ccc2ccccc2c1` (stereo partly drawn) [Example 8G], under setting [3], the IC90 was above 50 µg/mL.

For `O=C1N(Cc2ccc3ccccc3c2)C(Cc2ccccc2)C(O)C(C(Br)Cc2ccccc2)N1Cc1ccc2ccccc2c1` (stereo not drawn) [Example 8R], the IC90 under setting [3] was above 50 µg/mL.

Take `COC(=O)c1cccc(CN2C(=O)N(Cc3cccc(C(=O)OC)c3)[C@H](Cc3ccccc3)[C@H](O)[C@H]2CCc2ccccc2)c1` [Example 8Y]: under setting [3], the IC90 lay within 10 to 100 µg/mL (≈ 16.5 to 165 µM).

Turning to `CNC(=O)OCCCCCCN1C(=O)N(CCCCCCOC(C)=O)C(Cc2ccccc2)C(O)C(O)C1Cc1ccccc1` (stereo not drawn) [Example 12X], the IC90 (Human immunodeficiency virus 1, MT2, 48 h, Table 2d, class symbols, read-out: IC90) is below 10 µg/mL.

With `CC(=NO)c1cccc(CN2C(=O)N(Cc3cccc(C(C)=NO)c3)C(Cc3ccccc3)C(O)C(O)C2Cc2ccccc2)c1` (stereo not drawn) [Example 15XS], for the setting “Human immunodeficiency virus 1, MT2, 48 h, Table 2d, HIV RNA assay, read-out: IC90”, the IC90 is below 10 µg/mL.

`Nc1ccn([C@H]2CC[C@@H](CO)O2)c(=O)n1` [dideoxycytidine, reference compound]: for the setting “Human immunodeficiency virus 1, MT2, virus inoculum standardisation, HIV-1 (RF), MT-2 cells, read-out: IC50 value (concentration of compound required to reduce the HIV RNA level by 90%)”, the IC90 worked out at 0.2 µg/mL (≈ 0.947 µM).
